20 compounds from patent publication EP3800188A1, “SUBSTITUTED PYRAZOLOPYRIMIDINES AS IRAK4 INHIBITORS” (Bayer AG, priority 2019, dated 2021) can be followed below.

The target of the assay is T1, human IRAK4 (Homo sapiens, UniProt Q9NWZ3).
T1 construct: GST (N); made in house; host or cells: baculovirus-infected Hi5 (BTI-TN-5B1-4) insect cells
T1 sequence (Q9NWZ3 1-460): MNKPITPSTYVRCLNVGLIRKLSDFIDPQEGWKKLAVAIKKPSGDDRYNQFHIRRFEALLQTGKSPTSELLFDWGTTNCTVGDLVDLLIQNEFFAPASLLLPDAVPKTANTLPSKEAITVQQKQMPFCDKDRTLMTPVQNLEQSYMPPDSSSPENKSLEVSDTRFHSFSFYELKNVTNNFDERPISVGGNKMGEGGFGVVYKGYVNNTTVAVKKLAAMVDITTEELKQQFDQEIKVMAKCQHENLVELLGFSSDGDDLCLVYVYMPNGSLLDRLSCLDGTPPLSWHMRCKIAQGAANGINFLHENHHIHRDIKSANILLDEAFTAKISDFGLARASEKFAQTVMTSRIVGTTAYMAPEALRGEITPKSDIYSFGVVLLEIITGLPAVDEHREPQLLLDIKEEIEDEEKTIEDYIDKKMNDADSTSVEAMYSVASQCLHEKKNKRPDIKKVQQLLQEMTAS
As to the kind of experiment: Human IRAK4 kinase activity inhibition assay (IRAK4 TR-FRET assay). The format is biochemical. Particulars: 1 mM ATP, GST-human IRAK4, average or median values. The protocol: The IRAK4-inhibitory activity of the inventive substances was measured in the IRAK4 TR-FRET assay (TR-FRET = Time Resolved Fluorescence Resonance Energy Transfer) described hereinafter.
Recombinant fusion protein from N-terminal GST (glutathione S-transferase) and human IRAK4, expressed in baculovirus-infected insect cells (Hi5, BTI-TN-5B1-4, cell line purchased from Invitrogen, catalogue No. B855-02) and purified via affinity chromatography, was used as enzyme. The substrate used for the kinase reaction was the biotinylated peptide biotin-Ahx-[…] (C-terminus in amide form) which can be purchased, for example, from Biosyntan GmbH (Berlin-Buch). For the assay, 11 different concentrations in the range from 20 µM to 0.073 nM were prepared from a 2 mM DMSO solution of the test substance. 50 nl of the respective 100fold concentrated test compound solutions in DMSO were pipetted into a black low-volume 384-well microtitre plate or a black 1536-well microtiter plate (both Greiner Bio-One, Frickenhausen, Germany), 2 µl of a solution of IRAK4 in assay buffer [50 mM HEPES pH 7.5, 5mM MgCl2, 1.0 mM dithiothreitol, 30 µM activated sodium orthovanadate, 0.1% (w/v) of bovine gamma-globulin (BGG) 0.04% (v/v) nonidet-P40 (Sigma)] were added and the mixture was incubated for 15 min to allow prebinding of the substances to the enzyme prior to the kinase reaction. […] The concentration of the IRAK4 was adjusted to the respective activity of the enzyme and set such that the assay was carried out in the linear range. Typical concentrations were in the order of about 0.2 nM. The reaction was stopped by addition of 5 µl of a solution of TR-FRET detection reagents [0.1 µM streptavidin-XL665 (Cisbio Bioassays; France, catalogue No. 610SAXLG)] and 1.5 nM anti-phosphoserine antibody [Merck Millipore, "STK Antibody", catalogue No. 35-002] and 0.6 nM LANCE EU-W1024-labelled anti-mouse-IgG antibody (Perkin-Elmer, product No. AD0077; alternatively, it is possible to use a terbium cryptate-labelled anti-mouse-IgG antibody from Cisbio Bioassays) in aqueous EDTA solution (100 mM EDTA, 0.4 % [w/v] bovine serum albumin [BSA] in 25 mM HEPES pH 7.5). The resulting mixture was incubated at 22°C for 1 h to allow formation of a complex of the biotinylated phosphorylated substrate and the detection reagents. The amount of the phosphorylated substrate was then evaluated by measuring the resonance energy transfer from europium chelate-labelled anti-mouse-IgG antibody to streptavidin-XL665. To this end, the fluorescence emissions at 620 nm and 665 nm were measured after excitation at 350 nm in a TR-FRET measuring instrument, for example a Rubystar (BMG Labtechnologies, Offenburg, Germany) or a Viewlux (Perkin-Elmer). The ratio of the emissions at 665 nm and 622 nm was taken as a measure of the amount of phosphorylated substrate. The data were normalized (enzyme reaction without test substance = 0% inhibition; all other assay components but no enzyme = 100% inhibition).
On the technique in general: TR-FRET usually uses a lanthanide donor and a delayed reading to cut background.
As for `O=C(O)CC1CN(c2nc(N[C@@H]3CNC(=O)C3)nc3c2cnn3-c2cccc(C(F)(F)F)c2)C1` [Example I-50, [1-(6-{[(3S)-5-oxopyrrolidin-3-yl]amino}-1-[3-(trifluoromethyl)phenyl]-1H-pyrazolo[3,4-d]pyrimidin-4-yl)azetidin-3-yl]acetic acid], it took 48.4 nM to reach half-maximal inhibition (IC50).

In turn, `CN(C)C1(C)CN(c2nc(N[C@@H]3CNC(=O)C3)nc3c2cnn3-c2cccc(C(F)(F)F)c2)C1` [Example I-38, (4S)-4-({4-[3-(dimethylamino)-3-methylazetidin-1-yl]-1-[3-(trifluoromethyl)phenyl]-1H-pyrazolo[3,4-d]pyrimidin-6-yl}amino)pyrrolidin-2-one] yielded an IC50 of 16.2 nM.

Turning to `O[C@H]1C[C@H](Nc2nc(N3CC(N4CCOCC4)C3)c3cnn(-c4cccc(C(F)F)c4)c3n2)C1` [II-25, trans-3-({1-[3-(difluoromethyl)phenyl]-4-[3-(morpholin-4-yl)azetidin-1-yl]-1H-pyrazolo-[3,4-d]pyrimidin-6-yl}amino)cyclobutanol], the IC50 was 6.15 nM.

The compound `CN(C)C1(C)CN(c2nc(NC3CCS(=O)(=O)CC3)nc3c2cnn3-c2cccc(C(F)(F)F)c2)C1` [Example I-39, 4-[3-(dimethylamino)-3-methylazetidin-1-yl]-N-(1,1-dioxidotetrahydro-2H-thiopyran-4-yl)-1-[3-(trifluoromethyl)phenyl]-1H-pyrazolo[3,4-d]pyrimidin-6-amine] had an IC50 of 24.5 nM.

`CC(C)(O)C1CCN(c2nc(NC3CCS(=O)(=O)C3)nc3c2cnn3-c2cccc(C(F)(F)F)c2)CC1` (centres unmarked) [Example I-4-1, 2-(1-{6-[(1,1-dioxidotetrahydrothiophen-3-yl)amino]-1-[3-(trifluoromethyl)phenyl]-1H-pyrazolo[3,4-d]pyrimidin-4-yl}piperidin-4-yl)propan-2-ol] displayed an IC50 of 12.2 nM.

For `CC(C)(O)C1CCN(c2nc(NC3CCCS(=O)(=O)C3)nc3c2cnn3-c2cccc(C(F)(F)F)c2)CC1` (centres unmarked) [Example I-10, 2-(1-{6-[(1,1-dioxidotetrahydro-2H-thiopyran-3-yl)amino]-1-[3-(trifluoromethyl)phenyl]-1H-pyrazolo[3,4-d]pyrimidin-4-yl)piperidin-4-yl)propan-2-ol], half-maximal inhibition (IC50) was put at 131 nM. This IC50 lies about 11-fold higher than the previous one.

Compound `O=S1(=O)CC[C@H](Nc2nc(N3CC(N4CCOCC4)C3)c3cnn(-c4cccc(C(F)(F)F)c4)c3n2)C1` [Example I-34, N-[(3S)-1,1-dioxidotetrahydrothiophen-3-yl]-4-[3-(morpholin-4-yl)azetidin-1-yl]-1-[3-(trifluoromethyl)phenyl]-1H-pyrazolo[3,4-d]pyrimidin-6-amine] came in with a half-maximal inhibitory concentration (IC50) of 85.1 nM. This IC50 lies about 1.5-fold lower than the previous one.

In turn, `OC1CCN(c2nc(N[C@H]3C[C@H](O)C3)nc3c2cnn3-c2cccc(C(F)(F)F)c2)CC1` [Example I-100] yielded an IC50 of 49.9 nM.

Compound `O=S1(=O)CC[C@H](Nc2nc(N3CCC(N4CCOCC4)CC3)c3cnn(-c4cccc(C(F)(F)F)c4)c3n2)C1` [Example I-33, N-[(3S)-1,1-dioxidotetrahydrothiophen-3-yl]-4-[4-(morpholin-4-yl)piperidin-1-yl]-1-[3-(trifluoromethyl)phenyl]-1H-pyrazolo[3,4-d]pyrimidin-6-amine] yielded a 50% inhibitory concentration (IC50) of 84.2 nM. Compared with the last compound, the IC50 is about 1.7-fold higher.

In the case of `CS(=O)(=O)N1CC(Nc2nc(N3C[C@@H](O)[C@H](F)C3)c3cnn(-c4cccc(C(F)F)c4)c3n2)C1` [II-23, (3R,4R)-1-(1-[3-(difluoromethyl)phenyl]-6-{[1-(methylsulfonyl)azetidin-3-yl]amino}-1H-pyrazolo[3,4-d]pyrimidin-4-yl)-4-fluoropyrrolidin-3-ol], the IC50 came to 16.2 nM.

Consider `CN1CC[C@@H](Nc2nc(N3CCC(CC(C)(C)O)CC3)c3cnn(-c4cccc(C(F)(F)F)c4)c3n2)C1` [Example I-25-1, 2-methyl-1-[1-(6-{[(3R)-1-methylpyrrolidin-3-yl]amino}-1-[3-(trifluoromethyl)phenyl]-1H-pyrazolo[3,4-d]pyrimidin-4-yl)piperidin-4-yl]propan-2-ol], for which inhibition was half-maximal at 40.3 nM (IC50).

Take `CN1CC[C@@H](Nc2nc(N3CCC(C(C)(C)O)CC3)c3cnn(-c4cccc(C(F)(F)F)c4)c3n2)C1` [Example I-13-2, 2-[1-(6-{[(3R)-1-methylpyrrolidin-3-yl]amino}-1-[3-(trifluoromethyl)phenyl]-1H-pyrazolo[3,4-d]pyrimidin-4-yl)piperidin-4-yl]propan-2-ol]: the IC50 came out at 32.7 nM.

`CC(C)(O)C1CCN(c2nc(N[C@H]3C[C@@](C)(O)C3)nc3c2cnn3-c2cccc(C(F)(F)F)c2)CC1` [Example I-90, cis-3-({4-[4-(2-hydroxypropan-2-yl)piperidin-1-yl]-1-[3-(trifluoromethyl)phenyl]-1H-pyrazolo[3,4-d]pyrimidin-6-yl}amino)-1-methylcyclobutanol]: the IC50 came out at 24.7 nM. The IC50 values of the last two compounds are within 1.5-fold of each other.

`CN1CC[C@H](Nc2nc(N3CCC(CC(C)(C)O)CC3)c3cnn(-c4cccc(C(F)(F)F)c4)c3n2)C1` [Example I-25-2, 2-methyl-1-[1-(6-{[(3S)-1-methylpyrrolidin-3-yl]amino}-1-[3-(trifluoromethyl)phenyl]-1H-pyrazolo[3,4-d]pyrimidin-4-yl)piperidin-4-yl]propan-2-ol] came in with an IC50 of 12 nM.

As to `CC(C)(O)C1CCN(c2nc(N[C@H]3CCOC3)nc3c2cnn3-c2cccc(C(F)(F)F)c2)CC1` [Example I-16-1, 2-(1-{6-[(3S)-tetrahydrofuran-3-ylamino]-1-[3-(trifluoromethyl)phenyl]-1H-pyrazolo[3,4-d]pyrimidin-4-yl}piperidin-4-yl)propan-2-ol], the half-inhibitory concentration (IC50) worked out at 19.4 nM.

The compound `O=S1(=O)CCC(Nc2nc(N3CCC(O)(C(F)(F)F)C3)c3cnn(-c4cccc(C(F)F)c4)c3n2)CC1` (centres unmarked) [II-15, 1-{1-[3-(difluoromethyl)phenyl]-6-[(1,1-dioxidotetrahydro-2H-thiopyran-4-yl)amino]-1H-pyrazolo[3,4-d]pyrimidin-4-yl}-3-(trifluoromethyl)pyrrolidin-3-ol] returned an IC50 of 45.2 nM.

With `O=C1C[C@@H](Nc2nc(N3CC(N4CCOCC4)C3)c3cnn(-c4cccc(C(F)(F)F)c4)c3n2)CN1` [Example I-1-2, (4R)-4-({4-[3-(morpholin-4-yl)azetidin-1-yl]-1-[3-(trifluoromethyl)phenyl]-1H-pyrazolo-[3,4-d]pyrimidin-6-yl}amino)pyrrolidin-2-one], the IC50 was 84.5 nM.

In turn, `NC1CCN(c2nc(N[C@H]3C[C@H](O)C3)nc3c2cnn3-c2cccc(C(F)(F)F)c2)CC1(F)F` (mixture of isomers) [Example I-104, trans-3-({4-[(4RS)-4-amino-3,3-difluoropiperidin-1-yl]-1-[3-(trifluoromethyl)phenyl]-1H-pyrazolo[3,4-d]pyrimidin-6-yl}amino)cyclobutanol] displayed an IC50 of 178 nM.

With `CS(=O)(=O)N1CC(Nc2nc(N3CC(N4CCOCC4)C3)c3cnn(-c4cccc(C(F)F)c4)c3n2)C1` [II-13, 1-[3-(difluoromethyl)phenyl]-N-[1-(methylsulfonyl)azetidin-3-yl]-4-[3-(morpholin-4-yl)azetidin-1-yl]-1H-pyrazolo[3,4-d]pyrimidin-6-amine], inhibition was half-maximal at 13.3 nM (IC50). This IC50 is about 13-fold lower than that of the compound before.

The compound `CCS(=O)(=O)[C@H]1C[C@H](Nc2nc(N3C[C@@H](O)[C@H](F)C3)c3cnn(-c4cccc(C(F)(F)F)c4)c3n2)C1` [Example I-87, (3R,4R)-1-(6-{[(1r,3R)-3-(ethylsulfonyl)cyclobutyl]amino}-1-[3-(trifluoromethyl)phenyl]-1H-pyrazolo[3,4-d]pyrimidin-4-yl)-4-fluoropyrrolidin-3-ol] returned an IC50 of 7.87 nM.

The IC50 is the midpoint of a concentration-inhibition curve. Higher therefore signals weaker potency.
